Reference: ChEMBL document CHEMBL5223119, “Discovery of pyrrolo[2,3-d]pyrimidine-based molecules as a Wee1 inhibitor template” (Bioorg Med Chem Lett, 2022)

Key:
[1] = AUC (0-infinity) in rat at 5 mg/kg,IG measured upto 24 hrs by LC-MS/MS analysis; format: ADME, organism-based; set-up: dose 5 mg/kg, time < 24 hrs, route ig; conditions: in vivo, po
[2] = molecular target: Wee1-like protein kinase (Homo sapiens, UniProt P30291); experiment: Inhibition of Wee1 (unknown origin) incubated for 60 mins by LanthaScreen Eu-Kinase binding assay
[3] = Half life in rat at 5 mg/kg,IG measured upto 24 hrs by LC-MS/MS analysis; format: ADME, organism-based; conditions: in vivo, po
[4] = test system: NCI-H1299; experiment: Antiproliferative activity against human NCI-H1299 cells assessed as cell growth inhibition incubated for 3 days by CellTiter-Glo Luminescent assay; format: functional, cell-based; conditions: NCI-H1299, 72 h
[5] = Cmax in rat at 5 mg/kg,IG measured upto 24 hrs by LC-MS/MS analysis; format: ADME, organism-based; set-up: dose 5 mg/kg, time < 24 hrs, route ig; conditions: in vivo, po
[6] = Tmax in rat at 5 mg/kg,IG measured upto 24 hrs by LC-MS/MS analysis; format: ADME, organism-based; conditions: in vivo, po

Wee1-like protein kinase, sequence (P30291 whole entry): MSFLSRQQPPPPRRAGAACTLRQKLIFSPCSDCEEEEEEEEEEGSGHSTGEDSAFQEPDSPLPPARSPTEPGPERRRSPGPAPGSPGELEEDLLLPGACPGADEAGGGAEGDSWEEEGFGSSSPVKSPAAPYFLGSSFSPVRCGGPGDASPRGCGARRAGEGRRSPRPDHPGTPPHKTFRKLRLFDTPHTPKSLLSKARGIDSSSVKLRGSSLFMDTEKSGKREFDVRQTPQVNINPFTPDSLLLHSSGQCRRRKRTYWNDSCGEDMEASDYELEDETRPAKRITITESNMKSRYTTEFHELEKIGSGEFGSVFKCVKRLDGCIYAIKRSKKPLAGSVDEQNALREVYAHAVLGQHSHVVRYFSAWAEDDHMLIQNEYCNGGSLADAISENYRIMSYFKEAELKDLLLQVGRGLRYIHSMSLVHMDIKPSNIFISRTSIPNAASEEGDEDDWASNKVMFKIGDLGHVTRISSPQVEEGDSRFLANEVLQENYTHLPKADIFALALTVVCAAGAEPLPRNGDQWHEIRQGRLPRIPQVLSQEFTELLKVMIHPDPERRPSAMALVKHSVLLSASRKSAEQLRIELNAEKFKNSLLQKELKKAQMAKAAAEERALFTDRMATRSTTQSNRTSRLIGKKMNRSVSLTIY

| SMILES | AUC(0-inf) [1] | IC50 [2] | half-life [3] | IC50 [4] | Cmax [5] | Tmax [6] |
| --- | --- | --- | --- | --- | --- | --- |
| CN1CCN(C2CCN(c3ccc(Nc4ncc5c(F)c(C6CC6)n(-c6cccc(C(C)(C)O)n6)c5n4)cc3F)CC2)CC1 | 4580 ng·h/mL | 0.0106 µM | 33.4 h | 0.623 µM | 117 ng/mL | 6.7 h |
| CN1CCC2(CC1)CCN(c1ccc(Nc3ncc4cc(C5CC5)n(-c5cccc(C(C)(C)O)n5)c4n3)cc1)CC2 | 4070 ng·h/mL |  | 19.2 h | 0.199 µM | 163 ng/mL | 4.8 h |
| CCCc1c(F)c2cnc(Nc3ccc(N4CCOCC4)cc3)nc2n1-c1cccc(N=S(C)(C)=O)n1 |  | 0.00337 µM |  | 0.332 µM |  |  |
| CN1CCN(c2ccc(Nc3ncc4c(F)c(C5CC5)n(-c5cccc(C(C)(C)O)n5)c4n3)cc2)CC1 |  | 0.0382 µM |  | 0.288 µM |  |  |
| Cc1cc2cnc(Nc3ccc(N4CCN(C)CC4)cc3)nc2n1-c1cccc(N=S(C)(C)=O)n1 |  |  |  | 0.059 µM |  |  |
| CN1CCN(C2CCN(c3ccc(Nc4ncc5c(F)c(C6CC6)n(-c6cccc(C(C)(C)O)n6)c5n4)cc3)CC2)CC1 | 1750 ng·h/mL | 0.00086 µM | 10.9 h | 0.211 µM | 83 ng/mL | 6 h |
| CCCc1cc2cnc(Nc3ccc(N4CCN(C)CC4)cc3)nc2n1-c1cccc(C(C)(C)O)n1 |  |  |  | 0.126 µM |  |  |
| CCc1cc2cnc(Nc3ccc(N4CCN(C)CC4)cc3)nc2n1-c1cccc(C(C)(C)O)n1 |  | 0.0001 µM |  |  |  |  |
| CC(C)c1cc2cnc(Nc3ccc(N4CCN(C)CC4)cc3)nc2n1-c1cccc(N=S(C)(C)=O)n1 |  |  |  | 0.1 µM |  |  |
| CC(C)c1cc2cnc(Nc3ccc(N4CCN(C)CC4)cc3)nc2n1-c1cccc(C(C)(C)O)n1 |  | 0.00042 µM |  | 0.091 µM |  |  |
| CN1CCN(C2CCN(c3ccc(Nc4ncc5cc(C6CC6)n(-c6cccc(N=S(C)(C)=O)n6)c5n4)cc3)CC2)CC1 |  | 0.00254 µM |  | 0.156 µM |  |  |
| CCCc1cc2cnc(Nc3ccc(N4CCC(N5CCN(C)CC5)CC4)cc3)nc2n1-c1cccc(N=S(C)(C)=O)n1 |  |  |  | 0.087 µM |  |  |
| CN1CCN(C2CCN(c3ccc(Nc4ncc5cc(C6CC6)n(-c6cccc(C(C)(C)O)n6)c5n4)cc3)CC2)CC1 |  | 0.00133 µM |  | 0.105 µM |  |  |
| Cc1cc2cnc(Nc3ccc(N4CCN(C)CC4)cc3)nc2n1-c1cccc(C(C)(C)O)n1 | 710 ng·h/mL |  | 3.56 h |  | 125 ng/mL | 1 h |
| CN1CCN(c2ccc(Nc3ncc4cc(C5CC5)n(-c5cccc(N=S(C)(C)=O)n5)c4n3)cc2F)CC1 |  |  |  | 0.042 µM |  |  |
| CCc1cc2cnc(Nc3ccc(N4CCN(C)CC4)cc3)nc2n1-c1cccc(N=S(C)(C)=O)n1 | 48 ng·h/mL |  | 2.24 h | 0.023 µM | 8.1 ng/mL | 2.67 h |
| CCCc1c(F)c2cnc(Nc3ccc(N4CCN(C)CC4)cc3)nc2n1-c1cccc(N=S(C)(C)=O)n1 | 314 ng·h/mL |  | 4.58 h | 0.043 µM | 36.8 ng/mL | 1.67 h |
| COCc1cc2cnc(Nc3ccc(N4CCN(C)CC4)cc3)nc2n1-c1cccc(N=S(C)(C)=O)n1 |  | 0.00203 µM |  | 0.101 µM |  |  |
| CCCc1c(F)c2cnc(Nc3ccc(N4CCN(C)CC4)cc3)nc2n1-c1cccc(C(C)(C)O)n1 |  | 0.0093 µM |  | 1.72 µM |  |  |
| CN1CCN(c2ccc(Nc3ncc4cc(C5CC5)n(-c5cccc(N=S(C)(C)=O)n5)c4n3)cc2)CC1 | 286 ng·h/mL | 0.00092 µM | 8.26 h | 0.042 µM | 76.9 ng/mL | 0.92 h |
| CCCc1cc2cnc(Nc3ccc(N4CCN(C)CC4)cc3)nc2n1-c1cccc(N=S(C)(C)=O)n1 | 188 ng·h/mL |  | 3.24 h | 0.033 µM | 29.4 ng/mL | 2.33 h |
| CCCc1cc2cnc(Nc3ccc(N4CCOCC4)cc3)nc2n1-c1cccc(N=S(C)(C)=O)n1 |  | 0.0083 µM |  | 0.451 µM |  |  |
| C=CCn1c(=O)c2cnc(Nc3ccc(N4CCN(C)CC4)cc3)nc2n1-c1cccc(C(C)(C)O)n1 [ADAVOSERTIB] |  |  |  | 0.104 µM |  |  |
